Laboratory results published in ChEMBL document CHEMBL2424622, “Development of amino-pyrimidine inhibitors of c-Jun N-terminal kinase (JNK): kinase profiling guided optimization of a 1,2,3-benzotriazole lead” (Bioorg Med Chem Lett, 2013).

Key:
[1] = target: Activin receptor type-1-like (Homo sapiens) (UniProt P37023); assay: Competitive binding affinity to ACVRL1 (unknown origin) at 10 uM in presence of ATP relative to control
[2] = target: T1, Serine/threonine-protein kinase BRSK2 (Homo sapiens) (UniProt Q8IWQ3); assay: Competitive binding affinity to BRSK2 (unknown origin) at 10 uM in presence of ATP relative to control
T1 sequence (whole entry): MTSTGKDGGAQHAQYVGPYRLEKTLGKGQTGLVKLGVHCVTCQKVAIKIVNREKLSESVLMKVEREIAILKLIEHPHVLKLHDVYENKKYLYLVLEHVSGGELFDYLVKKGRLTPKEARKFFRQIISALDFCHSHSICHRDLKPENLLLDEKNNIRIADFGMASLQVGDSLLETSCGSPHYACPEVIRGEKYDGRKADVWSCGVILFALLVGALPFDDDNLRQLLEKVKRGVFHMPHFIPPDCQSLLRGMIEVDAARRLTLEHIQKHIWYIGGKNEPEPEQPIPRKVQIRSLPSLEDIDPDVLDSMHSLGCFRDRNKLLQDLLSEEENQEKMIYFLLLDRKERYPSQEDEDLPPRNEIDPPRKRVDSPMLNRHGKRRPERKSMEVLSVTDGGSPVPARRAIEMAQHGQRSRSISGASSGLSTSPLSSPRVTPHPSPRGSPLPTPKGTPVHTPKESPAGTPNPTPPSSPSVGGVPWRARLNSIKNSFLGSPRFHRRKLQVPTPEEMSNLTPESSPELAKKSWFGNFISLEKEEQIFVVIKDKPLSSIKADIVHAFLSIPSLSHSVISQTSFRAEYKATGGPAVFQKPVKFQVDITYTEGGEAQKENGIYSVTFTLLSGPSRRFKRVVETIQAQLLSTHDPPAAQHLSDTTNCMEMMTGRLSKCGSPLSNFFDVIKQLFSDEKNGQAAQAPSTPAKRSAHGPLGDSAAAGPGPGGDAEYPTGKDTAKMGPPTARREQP

[3] = target: T2, Ankyrin repeat and protein kinase domain-containing protein 1 (Homo sapiens) (UniProt Q8NFD2); assay: Competitive binding affinity to ANKK1 (unknown origin) at 10 uM in presence of ATP relative to control
T2 sequence (whole entry): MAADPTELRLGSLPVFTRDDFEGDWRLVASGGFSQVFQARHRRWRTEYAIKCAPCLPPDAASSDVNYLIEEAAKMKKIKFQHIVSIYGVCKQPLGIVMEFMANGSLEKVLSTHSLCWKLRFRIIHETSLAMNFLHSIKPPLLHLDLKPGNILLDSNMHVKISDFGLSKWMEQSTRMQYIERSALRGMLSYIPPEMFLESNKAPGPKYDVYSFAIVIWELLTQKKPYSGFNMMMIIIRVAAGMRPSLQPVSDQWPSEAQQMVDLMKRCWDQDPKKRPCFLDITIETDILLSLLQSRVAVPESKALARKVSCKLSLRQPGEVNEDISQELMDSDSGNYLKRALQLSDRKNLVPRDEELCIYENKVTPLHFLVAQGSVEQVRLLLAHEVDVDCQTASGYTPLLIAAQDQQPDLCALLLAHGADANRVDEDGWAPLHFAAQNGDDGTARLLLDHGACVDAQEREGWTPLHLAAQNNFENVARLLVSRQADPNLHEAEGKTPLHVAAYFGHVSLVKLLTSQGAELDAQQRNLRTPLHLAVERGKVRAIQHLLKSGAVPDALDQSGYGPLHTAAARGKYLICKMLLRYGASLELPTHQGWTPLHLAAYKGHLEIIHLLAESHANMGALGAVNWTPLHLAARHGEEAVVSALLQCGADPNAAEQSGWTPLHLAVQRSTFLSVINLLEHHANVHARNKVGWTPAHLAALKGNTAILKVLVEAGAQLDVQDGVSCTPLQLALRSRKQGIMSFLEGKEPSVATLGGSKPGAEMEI

[4] = target: T3, Tyrosine-protein kinase receptor TYRO3 (Homo sapiens) (UniProt Q06418); assay: Competitive binding affinity to TYRO3 (unknown origin) at 10 uM in presence of ATP relative to control
T3 sequence (whole entry): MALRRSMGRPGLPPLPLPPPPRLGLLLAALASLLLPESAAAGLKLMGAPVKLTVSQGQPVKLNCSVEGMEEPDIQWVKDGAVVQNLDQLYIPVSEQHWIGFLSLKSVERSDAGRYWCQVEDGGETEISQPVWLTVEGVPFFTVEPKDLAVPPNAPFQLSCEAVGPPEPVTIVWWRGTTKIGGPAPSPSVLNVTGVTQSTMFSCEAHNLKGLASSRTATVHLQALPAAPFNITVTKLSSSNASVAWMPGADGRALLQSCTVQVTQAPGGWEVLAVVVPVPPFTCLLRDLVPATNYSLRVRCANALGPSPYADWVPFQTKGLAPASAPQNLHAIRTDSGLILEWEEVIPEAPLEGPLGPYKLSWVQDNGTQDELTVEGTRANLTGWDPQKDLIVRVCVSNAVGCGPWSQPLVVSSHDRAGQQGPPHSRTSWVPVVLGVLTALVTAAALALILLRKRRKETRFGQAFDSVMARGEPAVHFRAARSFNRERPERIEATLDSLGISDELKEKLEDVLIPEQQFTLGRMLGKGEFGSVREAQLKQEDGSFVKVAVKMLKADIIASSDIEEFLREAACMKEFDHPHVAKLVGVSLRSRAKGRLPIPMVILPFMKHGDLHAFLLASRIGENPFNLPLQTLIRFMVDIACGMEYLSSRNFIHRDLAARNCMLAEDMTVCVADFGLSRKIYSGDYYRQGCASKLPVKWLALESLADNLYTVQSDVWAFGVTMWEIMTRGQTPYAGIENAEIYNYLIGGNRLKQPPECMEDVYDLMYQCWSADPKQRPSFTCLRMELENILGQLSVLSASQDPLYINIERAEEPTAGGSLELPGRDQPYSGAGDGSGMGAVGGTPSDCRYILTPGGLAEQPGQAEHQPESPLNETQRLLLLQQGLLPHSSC

[5] = target: Insulin receptor-related protein (Homo sapiens) (UniProt P14616); assay: Competitive binding affinity to INSRR (unknown origin) at 10 uM in presence of ATP relative to control
Sequence of Insulin receptor-related protein (Homo sapiens) (P14616 27-742 limits assumed): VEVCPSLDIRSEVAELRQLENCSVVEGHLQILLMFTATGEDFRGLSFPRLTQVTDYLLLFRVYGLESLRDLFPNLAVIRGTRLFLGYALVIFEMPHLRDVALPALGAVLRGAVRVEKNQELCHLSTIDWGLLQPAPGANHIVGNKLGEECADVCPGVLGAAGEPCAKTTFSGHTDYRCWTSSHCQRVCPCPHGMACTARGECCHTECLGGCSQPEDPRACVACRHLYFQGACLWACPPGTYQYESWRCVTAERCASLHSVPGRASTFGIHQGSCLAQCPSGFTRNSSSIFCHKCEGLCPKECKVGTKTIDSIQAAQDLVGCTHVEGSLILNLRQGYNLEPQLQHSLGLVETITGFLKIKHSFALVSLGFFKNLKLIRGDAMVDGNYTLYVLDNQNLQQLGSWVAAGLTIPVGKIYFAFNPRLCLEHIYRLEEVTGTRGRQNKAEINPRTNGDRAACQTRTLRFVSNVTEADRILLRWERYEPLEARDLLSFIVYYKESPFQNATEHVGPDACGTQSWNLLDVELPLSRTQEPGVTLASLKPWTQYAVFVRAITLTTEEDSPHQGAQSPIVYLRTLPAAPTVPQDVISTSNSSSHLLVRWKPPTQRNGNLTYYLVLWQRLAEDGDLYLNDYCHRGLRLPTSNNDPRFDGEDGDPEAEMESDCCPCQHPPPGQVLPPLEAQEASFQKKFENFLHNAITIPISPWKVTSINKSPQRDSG
Sequence of Insulin receptor-related protein (Homo sapiens) (P14616 747-1297 limits assumed): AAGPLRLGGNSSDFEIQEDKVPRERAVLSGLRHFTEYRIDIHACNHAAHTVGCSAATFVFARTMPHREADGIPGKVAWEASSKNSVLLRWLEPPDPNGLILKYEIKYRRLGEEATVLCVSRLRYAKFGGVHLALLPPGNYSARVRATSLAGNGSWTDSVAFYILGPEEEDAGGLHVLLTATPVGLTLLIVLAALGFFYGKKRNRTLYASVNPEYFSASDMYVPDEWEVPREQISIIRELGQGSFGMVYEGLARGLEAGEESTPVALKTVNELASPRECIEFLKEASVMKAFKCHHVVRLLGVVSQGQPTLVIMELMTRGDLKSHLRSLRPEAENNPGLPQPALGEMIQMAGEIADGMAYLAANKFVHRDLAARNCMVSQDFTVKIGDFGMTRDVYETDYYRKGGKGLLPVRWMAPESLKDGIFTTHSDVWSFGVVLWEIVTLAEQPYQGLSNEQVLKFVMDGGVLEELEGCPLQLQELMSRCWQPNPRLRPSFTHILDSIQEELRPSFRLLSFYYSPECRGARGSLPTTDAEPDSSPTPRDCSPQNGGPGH

Sequence of Activin receptor type-1-like (Homo sapiens) (P37023 whole entry): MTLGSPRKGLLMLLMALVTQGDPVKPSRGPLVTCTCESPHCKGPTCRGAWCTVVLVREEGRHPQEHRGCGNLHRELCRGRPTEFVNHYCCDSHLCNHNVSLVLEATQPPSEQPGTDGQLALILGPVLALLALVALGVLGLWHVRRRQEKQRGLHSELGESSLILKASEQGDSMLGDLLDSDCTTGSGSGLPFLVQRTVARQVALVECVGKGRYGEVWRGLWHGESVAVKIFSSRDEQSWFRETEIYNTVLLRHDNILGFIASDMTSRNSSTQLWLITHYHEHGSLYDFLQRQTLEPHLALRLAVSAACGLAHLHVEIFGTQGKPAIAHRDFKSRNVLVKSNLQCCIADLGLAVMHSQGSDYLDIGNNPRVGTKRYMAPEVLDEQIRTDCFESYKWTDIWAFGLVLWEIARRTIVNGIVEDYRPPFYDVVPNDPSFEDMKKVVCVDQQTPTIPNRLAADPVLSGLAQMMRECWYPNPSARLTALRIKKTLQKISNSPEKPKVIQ

| SMILES | inhibition [1] [%] | inhibition [2] [%] | inhibition [3] [%] | inhibition [4] [%] | inhibition [5] [%] |
| --- | --- | --- | --- | --- | --- |
| O[C@H]1CC[C@H](Nc2nccc(-n3nnc4ccccc43)n2)CC1 | < 50 | < 50 | 69 | < 50 | < 50 |
| O[C@H]1CC[C@H](Nc2nccc(-n3ncc4ccccc43)n2)CC1 | < 50 | < 50 | < 50 | < 50 | < 50 |
| O[C@H]1CC[C@H](Nc2nccc(-c3n[nH]c4ccccc34)n2)CC1 | < 50 | 69 | – | < 50 | 98 |
| O[C@H]1CC[C@H](Nc2nccc(-n3ccc4ccccc43)n2)CC1 | < 50 | < 50 | < 50 | < 50 | < 50 |
